The results in this text go back to patent US8242109B2, “Compositions and methods relating to novel compounds and targets thereof” (priority 2007, dated 2012).

The structures appear in SMILES notation. Read-outs that look alike come from different tables or passages of the source.

One test has as its system Ramos cells. Put plainly: Cytotoxicity in Ramos cells. The test is classed as cell-based. As to conditions: Homo sapiens, read-out: Ramos Cell EC50. The protocol:
(§1) The compounds listed in Table 4 were tested for activity against F1F0-ATPase and cytotoxicity in Ramos cells. Inhibition of ATP synthesis and hydrolysis by the F1F0-ATPase was measured as described in K. M. Johnson et al., Chemistry & Biology 2005, 12, 485-496. Cytotoxicity in Ramos cells was measured as described in K. M. Johnson et al., Chemistry & Biology 2005, 12, 485-496, or using the alamarBlue™ Assay with fluorescence detection (U.S. Pat. No. 5,501,959) as supplied and described by Invitrogen (Carlsbad, Calif.).

A further test deals with T1, F1F0-ATPase (Bos taurus, UniProt P13621).
T1 construct: from tissue; host or cells: bovine sub-mitochondrial particles (SMPs)
The test can be described thus: Inhibition of ATP synthesis and hydrolysis by the F1F0-ATPase. It is filed as biochemical. The protocol: as §1

Turning to `Cc1ccc(CC2N=C(c3ccc(O)cc3)c3cc(Cl)ccc3NC2=O)cc1` (stereo not shown) [Compound 21, (Z)-7-chloro-5-(4-hydroxyphenyl)-3-(4-methylbenzyl)-1H-benzo[e][1,4]diazepin-2(3H)-one], the 50% effective concentration (EC50) in the test with Ramos cells (Ramos) is 5 to 10 µM. This molecule also had a 50% inhibitory concentration (IC50) against F1F0-ATPase of 5 to 10 µM.

As for `Cc1ccc(CC2N=C(c3ccc(O)cc3)c3cc(Cl)ccc3N(C)C2=O)cc1` (stereo not shown) [Compound 22, (Z)-7-chloro-5-(4-hydroxyphenyl)-1-methyl-3-(4-methylbenzyl)-1H-benzo[e][1,4]diazepin-2(3H)-one], the EC50 with Ramos cells (cytotoxicity in Ramos cells) is more than 10 µM. Besides, the half-inhibitory concentration (IC50) against F1F0-ATPase was more than 10 µM.

Take `CCc1ccccc1CC1N=C(c2ccc(O)cc2)c2cc(Cl)ccc2NC1=O` (stereo not shown) [Compound 23, (Z)-7-chloro-3-(2-ethylbenzyl)-5-(4-hydroxyphenyl)-1H-benzo[e][1,4]diazepin-2(3H)-one]: in the test on Ramos cells (cytotoxicity in Ramos cells), the EC50 was in the range of 5 to 10 µM. The same molecule showed a half-maximal inhibitory concentration (IC50) against F1F0-ATPase of 5 to 10 µM.

Turning to `CCc1ccccc1CC1N=C(c2ccc(O)cc2)c2cc(Cl)ccc2N(C)C1=O` (stereo not shown) [Compound 24, (Z)-7-chloro-3-(2-ethylbenzyl)-5-(4-hydroxyphenyl)-1-methyl-1H-benzo[e][1,4]diazepin-2(3H)-one], the concentration giving a half-maximal response (EC50) in the test on Ramos cells (cytotoxicity in Ramos cells) was more than 10 µM. The molecule also displayed a half-maximal inhibitory concentration (IC50) against F1F0-ATPase of 5 to 10 µM.

For the molecule `CCc1cccc(CC2N=C(c3ccc(O)cc3)c3cc(Cl)ccc3NC2=O)c1` (stereo not shown) [Compound 25, (Z)-7-chloro-3-(3-ethylbenzyl)-5-(4-hydroxyphenyl)-1H-benzo[e][1,4]diazepin-2(3H)-one], the concentration giving a half-maximal response (EC50) with Ramos cells (cytotoxicity in Ramos cells) lay within 5 to 10 µM. The same molecule had an IC50 against F1F0-ATPase of 5 to 10 µM.

As to `CCc1cccc(CC2N=C(c3ccc(O)cc3)c3cc(Cl)ccc3N(C)C2=O)c1` (stereo not shown) [Compound 26, (Z)-7-chloro-3-(3-ethylbenzyl)-5-(4-hydroxyphenyl)-1-methyl-1H-benzo[e][1,4]diazepin-2(3H)-one], in the test with Ramos cells (cytotoxicity in Ramos cells), the concentration for a half-maximal effect (EC50) fell in the range of 5 to 10 µM. In addition, at F1F0-ATPase, the half-inhibitory concentration (IC50) was in the range of 5 to 10 µM.

As for `CCc1ccc(CC2N=C(c3ccc(O)cc3)c3cc(Cl)ccc3N(C)C2=O)cc1` (stereo not shown) [Compound 27, (Z)-7-chloro-3-(4-ethylbenzyl)-5-(4-hydroxyphenyl)-1-methyl-1H-benzo[e][1,4]diazepin-2(3H)-one], the EC50 in the test with Ramos cells (cytotoxicity in Ramos cells) fell in the range of 5 to 10 µM. Moreover, the concentration for half-maximal inhibition (IC50) on F1F0-ATPase lay within 5 to 10 µM.

Consider `CCc1ccc(CC2N=C(c3ccc(O)cc3)c3cc(Cl)ccc3NC2=O)cc1` (stereo not shown) [Compound 28, (Z)-7-chloro-3-(4-ethylbenzyl)-5-(4-hydroxyphenyl)-1H-benzo[e][1,4]diazepin-2(3H)-one], for which the EC50 in the test on Ramos cells (cytotoxicity in Ramos cells) lay in the range of 5 to 10 µM. Also, the half-maximal inhibitory concentration (IC50) against F1F0-ATPase is 5 to 10 µM.

With `CC(C)c1cccc(CC2N=C(c3ccc(O)cc3)c3cc(Cl)ccc3N(C)C2=O)c1` (stereo not shown) [Compound 29, (Z)-7-chloro-5-(4-hydroxyphenyl)-3-(3-isopropylbenzyl)-1-methyl-1H-benzo[e][1,4]diazepin-2(3H)-one], in the test on Ramos cells (cytotoxicity in Ramos cells), the 50% effective concentration (EC50) fell in the range of 5 to 10 µM. This molecule also yielded a 50% inhibitory concentration (IC50) against F1F0-ATPase of 5 to 10 µM.

Regarding `CC(C)c1ccc(CC2N=C(c3ccc(O)cc3)c3cc(Cl)ccc3NC2=O)cc1` (stereo not shown) [Compound 30, (Z)-7-chloro-5-(4-hydroxyphenyl)-3-(4-isopropylbenzyl)-1H-benzo[e][1,4]diazepin-2(3H)-one], the EC50 with Ramos cells (cytotoxicity in Ramos cells) was 5 to 10 µM. At F1F0-ATPase, this molecule returned an IC50 of 5 to 10 µM.

Turning to `CC(C)c1ccc(CC2N=C(c3ccc(O)cc3)c3cc(Cl)ccc3N(C)C2=O)cc1` (stereo not shown) [Compound 31, (Z)-7-chloro-5-(4-hydroxyphenyl)-3-(4-isopropylbenzyl)-1-methyl-1H-benzo[e][1,4]diazepin-2(3H)-one], the EC50 with Ramos cells (cytotoxicity in Ramos cells) is 5 to 10 µM. The half-inhibitory concentration (IC50) against F1F0-ATPase was 5 to 10 µM.

As for `CN1C(=O)C(Cc2ccccc2C(F)(F)F)N=C(c2ccc(O)cc2)c2cc(Cl)ccc21` (stereo not shown) [Compound 32, (Z)-7-chloro-5-(4-hydroxyphenyl)-1-methyl-3-(2-(trifluoromethyl)benzyl)-1H-benzo[e][1,4]diazepin-2(3H)-one], the EC50 in the test on Ramos cells (cytotoxicity in Ramos cells) fell in the range of 5 to 10 µM. Further, at F1F0-ATPase, the half-inhibitory concentration (IC50) was in the range of 5 to 10 µM.

As to `O=C1Nc2ccc(Cl)cc2C(c2ccc(O)cc2)=NC1Cc1ccccc1Br` (stereo not shown) [Compound 33, (Z)-3-(2-bromobenzyl)-7-chloro-5-(4-hydroxyphenyl)-1H-benzo[e][1,4]diazepin-2(3H)-one], in the test on Ramos cells (Ramos), the 50% effective concentration (EC50) was less than 5 µM. This molecule gave an IC50 at F1F0-ATPase of 5 to 10 µM.

With `CN1C(=O)C(Cc2ccccc2Cl)N=C(c2ccc(O)cc2)c2cc(Cl)ccc21` (stereo not shown) [Compound 34, (Z)-7-chloro-3-(2-chlorobenzyl)-5-(4-hydroxyphenyl)-1-methyl-1H-benzo[e][1,4]diazepin-2(3H)-one], the EC50 with Ramos cells (cytotoxicity in Ramos cells) was 5 to 10 µM. For the same molecule, the IC50 against F1F0-ATPase is less than 5 µM.

`CN1C(=O)C(Cc2ccc(C(F)(F)F)cc2)N=C(c2ccc(O)cc2)c2cc(Cl)ccc21` (stereo not shown) [Compound 36, (Z)-7-chloro-5-(4-hydroxyphenyl)-1-methyl-3-(4-(trifluoromethyl)benzyl)-1H-benzo[e][1,4]diazepin-2(3H)-one]: the EC50 in the test on Ramos cells (cytotoxicity in Ramos cells) was 5 to 10 µM. Further, the IC50 at F1F0-ATPase was less than 5 µM.

As for `CN1C(=O)C(Cc2cccc(Br)c2)N=C(c2ccc(O)cc2)c2cc(Cl)ccc21` (stereo not shown) [Compound 37, (Z)-3-(3-bromobenzyl)-7-chloro-5-(4-hydroxyphenyl)-1-methyl-1H-benzo[e][1,4]diazepin-2(3H)-one], in the test on Ramos cells (cytotoxicity in Ramos cells), the concentration for a half-maximal effect (EC50) fell in the range of 5 to 10 µM. Also, the IC50 against F1F0-ATPase was less than 5 µM.

On to `CN1C(=O)C(Cc2ccc(Br)cc2)N=C(c2ccc(O)cc2)c2cc(Cl)ccc21` (stereo not shown) [Compound 38, (Z)-3-(4-bromobenzyl)-7-chloro-5-(4-hydroxyphenyl)-1-methyl-1H-benzo[e][1,4]diazepin-2(3H)-one], for which the concentration for a half-maximal effect (EC50) in the test with Ramos cells (cytotoxicity in Ramos cells) fell in the range of 5 to 10 µM. The molecule also registered an IC50 against F1F0-ATPase of less than 5 µM.

Consider `CN1C(=O)C(Cc2cccc(Cl)c2)N=C(c2ccc(O)cc2)c2cc(Cl)ccc21` (stereo not shown) [Compound 39, (Z)-7-chloro-3-(3-chlorobenzyl)-5-(4-hydroxyphenyl)-1-methyl-1H-benzo[e][1,4]diazepin-2(3H)-one], for which, in the test on Ramos cells (cytotoxicity in Ramos cells), the EC50 is more than 10 µM. Further, on F1F0-ATPase, the half-inhibitory concentration (IC50) is more than 10 µM.

For `O=C1Nc2ccc(Cl)cc2C(c2ccc(O)cc2)=NC1Cc1ccccc1Cl` (stereo not shown) [Compound 40, (Z)-7-chloro-3-(2-chlorobenzyl)-5-(4-hydroxyphenyl)-1H-benzo[e][1,4]diazepin-2(3H)-onc], the EC50 in the test with Ramos cells (Ramos) fell in the range of 5 to 10 µM. The IC50 against F1F0-ATPase is less than 5 µM.

In the case of `O=C1Nc2ccc(Cl)cc2C(c2ccc3[nH]c(=O)[nH]c3c2)=NC1Cc1ccccc1Cl` (stereo not shown) [Compound 41, (Z)-7-chloro-3-(2-chlorobenzyl)-5-(2-oxo-2,3-dihydro-1H-benzo[d]imidazol-5-yl)-1H-benzo[e][1,4]diazepin-2(3H)-one], the EC50 in the test on Ramos cells (cytotoxicity in Ramos cells) was less than 5 µM. Further, on F1F0-ATPase, the half-maximal inhibitory concentration (IC50) is less than 5 µM.
